# Data published in EP4786487A1, “PEPTIDE” (Peptidream Inc, priority 2023, dated 2025).
# Read-outs that look alike come from different tables or passages of the source. Starred links: 1 amine or outer side, 2 acyl side, 3 side chain; linkers in the order of their positions; H or OH if unused. Positions of bridges follow the written chain, without caps; N, C: chain ends. Non-standard residues stand in square brackets, D forms with d. Residues, ends and D or L forms follow the SMILES beside them. *: point of attachment. Phe(3-OCH2COOH) = N[C@@H](Cc1cccc(OCC(=O)O)c1)C(=O)O; Trp(6-OH) = N[C@@H](Cc1c[nH]c2cc(O)ccc12)C(=O)O; Phe(4-COOH) = N[C@@H](Cc1ccc(C(=O)O)cc1)C(=O)O; Piperazinyl(4-CH2COOH) = O=C(O)CN1CCN(*)CC1; Gly(decyl) = CCCCCCCCCC[C@H](N)C(=O)O; Gly(octyl) = CCCCCCCC[C@H](N)C(=O)O; X1 = CCCCCCC[C@H](N[*:1])C(=O)[*:2]; Gly(N-(CH2)3OMe) = COCCCNCC(=O)O; NMeF = CN[C@@H](Cc1ccccc1)C(=O)O; NMeE = CN[C@@H](CCC(=O)O)C(=O)O; Cha = N[C@@H](CC1CCCCC1)C(=O)O; NMeA = CN[C@@H](C)C(=O)O; Bn = c1ccc(C*)cc1; NEtG = CCNCC(=O)O; Sar = CNCC(=O)O
# Tests used:
# Type in all cases: cell-based
# [1] = molecular target: T1, Myostatin (Homo sapiens, UniProt O14793); test: HepG2 reporter gene assay, Evaluation Procedure (2): 2-concentrations assay, myostatin inhibition; conditions: Myostatin 10 ng/mL, HepG2; for inhibition at 0.03 µM: peptide 30nM, read-out: Myostatin Inhibition 30nM; for inhibition at 0.1 µM: peptide 100nM, read-out: Myostatin Inhibition 100nM
# T1 construct: active myostatin (also called mature myostatin) is a homodimer consisting of two C-terminal growth factor domains; purchased R&D systems 788-G8/CF
# T1 sequence (O14793 267-375): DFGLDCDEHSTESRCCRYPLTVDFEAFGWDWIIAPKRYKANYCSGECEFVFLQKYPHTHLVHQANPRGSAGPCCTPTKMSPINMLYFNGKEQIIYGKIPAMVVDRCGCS
# Procedure, shortened: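 Myostatin inhibition was measured in a luciferase reporter assay using HepG2 cells transfected with a pGL3 vector containing 12 CAGA repeats upstream of luciferase. After 20 to 24 hours with 10 ng/mL myostatin, cells received One-Glo:PBS (1:1) at 100 µL/well, were shaken for 5 min, and 20 µL/well was moved to 384-well plates and read on an Envision 2104.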
# [2] = molecular target: T2, GDF-11 (Homo sapiens, UniProt O95390); test: Reporter gene assay for myostatin signaling in HepG2 cell line, Evaluation Procedure (1), GDF-11 inhibition; conditions: read-out: IC50 (Luciferase) GDF-11 HepG2
# T2 construct: purchased R&D systems 1958-GD-G8/CF
# T2 sequence (O95390 299-407): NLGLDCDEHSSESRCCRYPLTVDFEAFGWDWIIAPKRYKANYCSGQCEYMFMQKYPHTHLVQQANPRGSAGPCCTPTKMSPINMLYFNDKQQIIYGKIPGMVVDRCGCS
# Procedure, shortened: (§1)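 IC50 derived from One-Glo luciferase luminescence after 20–24 h at 37 °C. Peptides titrated 4-fold at 0.006–100 nmol/L against myostatin or 0.12–2000 nmol/L against GDF-11 in HepG2 cells carrying a transfected CAGA12-luciferase reporter, kept in 0.1% BSA EMEM.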
# [3] = tested on: Myostatin; test: Reporter gene assay for myostatin signaling in HepG2 cell line, Evaluation Procedure (1), myostatin inhibition; conditions: GDF-11 IC50 versus Myostatin IC50
# Procedure, shortened: as §1
# [4] = molecular target: T1, Myostatin; test: as above; conditions: read-out: IC50 (Luciferase) Myostatin HepG2
# Procedure, shortened: as §1
# [5] = molecular target: T2, GDF-11; test: HepG2 reporter gene assay, Evaluation Procedure (2): 2-concentrations assay, GDF-11 inhibition; conditions: GDF-11 10 ng/mL
# Procedure, shortened: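 HepG2 cells carrying the transfected pGL3(CAGA)12-luc reporter, a pGL3 vector with luciferase placed downstream of 12 CAGA repeats, were stimulated with GDF-11 at a final 10 ng/mL together with test peptide. Blank wells received no GDF-11 and no peptide. Plates were incubated 20 to 24 hours at 37°C with 5% CO2. Luminescence from One-Glo substrate was read to calculate percent inhibition.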
Compound,inhibition at 0.03 µM [1] [%],inhibition at 0.1 µM [1] [%],IC50 ([2]; Method B: GDF-11 1 ng/mL) [nM],IC50 ([4]; Method B: Myostatin 1 ng/mL) [nM],"inhibition at 0.03 µM ([5]; HepG2, peptide 30nM, read-out: GDF11 Inhibition 30nM) [%]","inhibition at 0.1 µM ([5]; HepG2, peptide 100nM, read-out: GDF11 Inhibition 100nM) [%]",IC50 ([2]; Method D: GDF-11 1.5 ng/mL) [nM],IC50 ([4]; Method D: Myostatin 1.5 ng/mL) [nM],Selectivity ([3]; Method B),Selectivity ([3]; Method D)
CCCCCCCCCC[C@@H]1NC(=O)[C@H](CC2CCCCC2)NC(=O)[C@H](CCCNC(=N)N)NC(=O)[C@H](Cc2ccc(C(=O)O)cc2)NC(=O)[C@H](Cc2cccc(OCC(=O)O)c2)NC(=O)CN(C)C(=O)[C@H]([C@@H](C)CC)NC(=O)[C@H](Cc2ccccc2)N(C)C(=O)[C@H](Cc2ccc(O)cc2)NC(=O)[C@H](Cc2c[nH]c3ccccc23)NC(=O)[C@H](C)NC(=O)[C@H](C)NC(=O)CSC[C@H](C(=O)N2CCN(CC(=O)O)CC2)NC(=O)[C@H](Cc2ccccc2)N(C)C(=O)[C@H](CCC(=O)O)N(C)C1=O [Myostatin_99_v261] ({CH2CO}-AAWY[NMeF]I[Sar][Phe(3-OCH2COOH)][Phe(4-COOH)]R[Cha][Gly(decyl)][NMeE][NMeF][dC]-{Piperazinyl(4-CH2COOH)}; thioether N-15),26,72,29,0.16,–,–,–,–,181,–
CCCCCCC[C@@H]1NC(=O)[C@H](Cc2ccccc2)N(C)C(=O)[C@H](CCCNC(=N)N)NC(=O)[C@H](Cc2ccc(C(=O)O)cc2)NC(=O)[C@H](Cc2cccc(OCC(=O)O)c2)NC(=O)CN(C)C(=O)[C@H]([C@@H](C)CC)NC(=O)[C@H](Cc2ccccc2)N(C)C(=O)[C@H](Cc2ccc(OCc3ccccc3)cc2)NC(=O)[C@H](Cc2c[nH]c3ccccc23)NC(=O)[C@H](C)NC(=O)[C@H](C)NC(=O)CSC[C@H](C(=O)N2CCN(CC(=O)O)CC2)NC(=O)[C@H](Cc2ccccc2)N(C)C(=O)[C@H](C)N(C)C1=O [Myostatin_99_v298] ({CH2CO}-AAWY(Bn)[NMeF]I[Sar][Phe(3-OCH2COOH)][Phe(4-COOH)]R[NMeF][X1][NMeA][NMeF][dC]-{Piperazinyl(4-CH2COOH)}; thioether N-15),100,100,6.8,0.11,12,55,–,–,62,–
CCCCCCCC[C@@H]1NC(=O)[C@H](Cc2ccccc2)N(C)C(=O)[C@H](CCCNC(=N)N)NC(=O)[C@H](Cc2ccc(OC)cc2)NC(=O)[C@H](Cc2cccc(OCC(=O)O)c2)NC(=O)CN(C)C(=O)[C@H]([C@@H](C)CC)NC(=O)[C@H](Cc2ccccc2)N(C)C(=O)[C@H](Cc2ccc(O)cc2)NC(=O)[C@H](Cc2c[nH]c3cc(O)ccc23)NC(=O)[C@H](C)NC(=O)CN(CCCOC)C(=O)CSC[C@H](C(N)=O)NC(=O)[C@H](Cc2ccccc2)N(C)C(=O)[C@H](C)N(C)C1=O [Myostatin_99_v418] ({CH2CO}-[Gly(N-(CH2)3OMe)]A[Trp(6-OH)]Y[NMeF]I[Sar][Phe(3-OCH2COOH)]Y(Me)R[NMeF][Gly(octyl)][NMeA][NMeF][dC]-NH2; thioether N-15),–,–,–,–,–,–,29.6,0.22,–,136.2

# The next lines start with results.
inhibition at 0.03 µM [1] [%],inhibition at 0.1 µM [1] [%],IC50 ([2]; Method B: GDF-11 1 ng/mL) [nM],IC50 ([4]; Method B: Myostatin 1 ng/mL) [nM],"inhibition at 0.03 µM ([5]; HepG2, peptide 30nM, read-out: GDF11 Inhibition 30nM) [%]","inhibition at 0.1 µM ([5]; HepG2, peptide 100nM, read-out: GDF11 Inhibition 100nM) [%]",IC50 ([2]; Method D: GDF-11 1.5 ng/mL) [nM],IC50 ([4]; Method D: Myostatin 1.5 ng/mL) [nM],Compound,Selectivity ([3]; Method B),Selectivity ([3]; Method D)
91,98,5.3,0.1,–,–,–,–,CCCCCCCCCC[C@@H]1NC(=O)[C@H](Cc2ccccc2)N(C)C(=O)[C@H](CCCNC(=N)N)NC(=O)[C@H](Cc2ccc(C(=O)O)cc2)NC(=O)[C@H](Cc2cccc(OCC(=O)O)c2)NC(=O)CN(C)C(=O)[C@H]([C@@H](C)CC)NC(=O)[C@H](Cc2ccccc2)N(C)C(=O)[C@H](Cc2ccc(O)cc2)NC(=O)[C@H](Cc2c[nH]c3ccccc23)NC(=O)[C@H](C)NC(=O)[C@H](C)NC(=O)CSC[C@H](C(=O)N2CCN(CC(=O)O)CC2)NC(=O)[C@H](Cc2ccccc2)N(C)C(=O)[C@H](CCC(=O)O)N(C)C1=O [Myostatin_99_v265] ({CH2CO}-AAWY[NMeF]I[Sar][Phe(3-OCH2COOH)][Phe(4-COOH)]R[NMeF][Gly(decyl)][NMeE][NMeF][dC]-{Piperazinyl(4-CH2COOH)}; thioether N-15),55,–
–,–,–,–,–,–,32.8,0.04,CCCCCCCCCC[C@@H]1NC(=O)[C@H](Cc2ccccc2)N(C)C(=O)[C@H](CCCNC(=N)N)NC(=O)[C@H](Cc2ccc(C(=O)O)cc2)NC(=O)[C@H](Cc2cccc(OCC(=O)O)c2)NC(=O)[C@H]2CCCN2C(=O)[C@H]([C@@H](C)CC)NC(=O)[C@H](Cc2ccccc2)N(C)C(=O)[C@H](Cc2ccc(O)cc2)NC(=O)[C@H](Cc2c[nH]c3cc(O)ccc23)NC(=O)[C@H](C)NC(=O)[C@H](C)NC(=O)CSC[C@H](C(=O)N2CCN(CC(=O)O)CC2)NC(=O)[C@H](Cc2ccccc2)N(C)C(=O)[C@H](CCC(=O)O)N(C)C1=O [Myostatin_99_v384] ({CH2CO}-AA[Trp(6-OH)]Y[NMeF]I[dP][Phe(3-OCH2COOH)][Phe(4-COOH)]R[NMeF][Gly(decyl)][NMeE][NMeF][dC]-{Piperazinyl(4-CH2COOH)}; thioether N-15),–,805.658
–,–,–,–,–,–,42.5,0.17,CCCCCCCCCC[C@@H]1NC(=O)[C@H](Cc2ccccc2)N(C)C(=O)[C@H](CCCNC(=N)N)NC(=O)[C@H](Cc2ccc(C(=O)O)cc2)NC(=O)[C@H](Cc2cccc(OCC(=O)O)c2)NC(=O)CN(CC)C(=O)[C@H]([C@@H](C)CC)NC(=O)[C@H](Cc2ccccc2)N(C)C(=O)[C@H](Cc2ccc(O)cc2)NC(=O)[C@H](Cc2c[nH]c3cc(O)ccc23)NC(=O)[C@H](C)NC(=O)[C@H](C)NC(=O)CSC[C@H](C(=O)N2CCN(CC(=O)O)CC2)NC(=O)[C@H](Cc2ccccc2)N(C)C(=O)[C@H](CCC(=O)O)N(C)C1=O [Myostatin_99_v385] ({CH2CO}-AA[Trp(6-OH)]Y[NMeF]I[NEtG][Phe(3-OCH2COOH)][Phe(4-COOH)]R[NMeF][Gly(decyl)][NMeE][NMeF][dC]-{Piperazinyl(4-CH2COOH)}; thioether N-15),–,251.449
